# Results: a compilation of properties of binary mixtures (doi:10.1016/j.jct.2017.08.033)
# Assay: xn = mol fraction of the nth substance listed
# Details: 101 kPa
smiles,measurement,setting,value
O=S(=O)([N-]S(=O)(=O)C(F)(F)F)C(F)(F)F.[Li+] + CC[n+]1ccn(C)c1.O=S(=O)([N-]S(=O)(=O)C(F)(F)F)C(F)(F)F,viscosity,"298.15 K, x2 = 0.6",588 mPa·s
same,viscosity,"298.15 K, x2 = 0.7",183 mPa·s
same,viscosity,"298.15 K, x2 = 0.9",46.6 mPa·s
same,viscosity,"298.15 K, x2 = 0.95",37.4 mPa·s
same,viscosity,"313.15 K, x2 = 0.6",225 mPa·s
same,viscosity,"313.15 K, x2 = 0.7",86.6 mPa·s
same,viscosity,"313.15 K, x2 = 0.8",47.5 mPa·s
same,viscosity,"313.15 K, x2 = 0.9",27.4 mPa·s
same,viscosity,"313.15 K, x2 = 0.95",22.7 mPa·s
same,viscosity,"328.15 K, x2 = 0.6",108.2 mPa·s
same,viscosity,"328.15 K, x2 = 0.7",47.6 mPa·s
same,viscosity,"328.15 K, x2 = 0.8",28.5 mPa·s
same,viscosity,"328.15 K, x2 = 0.9",17.8 mPa·s
same,viscosity,"328.15 K, x2 = 0.95",15.1 mPa·s
same,viscosity,"343.15 K, x2 = 0.6",60.8 mPa·s
same,viscosity,"343.15 K, x2 = 0.7",29.6 mPa·s
same,viscosity,"343.15 K, x2 = 0.8",18.8 mPa·s
same,viscosity,"343.15 K, x2 = 0.9",12.42 mPa·s
same,viscosity,"343.15 K, x2 = 0.95",10.69 mPa·s
same,viscosity,"358.15 K, x2 = 0.6",38.3 mPa·s
same,viscosity,"358.15 K, x2 = 0.7",20.1 mPa·s
same,viscosity,"358.15 K, x2 = 0.9",9.08 mPa·s
same,viscosity,"358.15 K, x2 = 0.95",7.96 mPa·s
CC[n+]1ccn(C)c1.O=S(=O)([N-]S(=O)(=O)C(F)(F)F)C(F)(F)F + O=S(=O)([N-]S(=O)(=O)C(F)(F)F)C(F)(F)F.[Li+],viscosity,"298.15 K, x1 = 1",30.7 mPa·s
same,viscosity,"328.15 K, x1 = 1",13.1 mPa·s
same,viscosity,"358.15 K, x1 = 1",7.12 mPa·s
